Several values for one entry are separate records, joined by “and”; a condition that tells them apart may be missing. Identical values can stand only once. Non-standard residues stand in square brackets, D forms with d. Residues, ends and D or L forms follow the SMILES beside them. *: point of attachment. boroGlu = O=C(O)CC[C@H](N*)B(O)O; Gly(cPr) = N[C@H](C(=O)O)C1CC1

Results on one compound are retold here after PMC12304293, “Combatting virulent gut bacteria by inhibiting the biosynthesis of a two-component lanthipeptide toxin” (Nature Communications, 2025).

Assay [1] relates to CylLS” in C+ E. faecalis ATCC 29212. Briefly: Detection of CylLS” from extracts of E. faecalis (LCMS). Type of assay: cell-based, Enterococcus faecalis. The settings on record: for Concentration CylLS (Figure 8C), replicates 1-4: ATCC 29212 overnight culture extract; for Concentration CylLS (Figure 8C), avg: n = 4. On the procedure:
To determine if inhibitor 9 blocks the maturation of cytolysin in C+ E. faecalis, an LCMS method was developed to estimate the concentration of CylLS” in cell extracts. This method employed biosynthetically prepared ^15N,^13C-labeled CylLS” as an internal standard. Cultures of E. faecalis were treated with inhibitor 9 or vehicle then lyophilized and extracted with methanol.
An overnight culture of E. faecalis ATCC 29212 was diluted to an OD600 equal to 2.0 in BHI then further diluted 1000-fold in BHI. Inhibitor 9 or vehicle was added immediately after dilution and the inoculated samples were incubated with shaking at 37 °C for 20 h. Following incubation, a 400 µL aliquot of each sample was flash frozen and lyophilized. Each lyophilized sample was extracted with 400 µL of 90% methonal/10% water containing ^15N,^13C-labeled CylLS” (5.8 nM). Alternating rounds of water bath sonication and vortexing were used to homogenize the samples. Once homogenized, the samples were allowed to stand at room temperature for 1 h then were centrifuged at 16,000 g for 10 min, incubated at −20 °C for 1 h, and centrifuged at 16,000 g for 10 min. The supernatant was analyzed by LCMS using injection volumes of 5 µL. EIC corresponding to the exact masses of [M + 2H]^2+ and [M+Na+H]^2+ were integrated and the peak areas were added together giving the total CylLS” and internal standard responses. The concentration of CylLS” was estimated from the response ratio multiplied by the concentration of the internal standard.

The target in a further assay is T1, His6-CylA-27-412 (Enterococcus faecalis, UniProt A0A2P6AWB8).
T1 sequence (A0A2P6AWB8 27-412): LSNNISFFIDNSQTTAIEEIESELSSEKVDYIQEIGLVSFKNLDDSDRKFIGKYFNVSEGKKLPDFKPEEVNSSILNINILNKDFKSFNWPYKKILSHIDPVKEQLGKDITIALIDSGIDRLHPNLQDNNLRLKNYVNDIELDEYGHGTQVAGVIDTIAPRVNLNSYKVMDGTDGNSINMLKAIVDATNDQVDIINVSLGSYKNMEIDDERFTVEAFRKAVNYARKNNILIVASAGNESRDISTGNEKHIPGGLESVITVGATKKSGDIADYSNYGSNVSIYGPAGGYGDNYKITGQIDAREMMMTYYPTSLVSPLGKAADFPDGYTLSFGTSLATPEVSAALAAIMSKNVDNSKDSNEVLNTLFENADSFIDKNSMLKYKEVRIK
Briefly: Co-operative pore formation assay (pyranine liposomes) measuring CylA-catalyzed cytolysin maturation. The assay is classed as biochemical. The text has this: Cytolysin causes hemolysis and lyses a variety of eukaryotic cells[36],[37]. Additionally, CylA aggregates and is thought to associate primarily with the membrane of the producing cell[52],[53]. To mimic the maturation of cytolysin in vitro, an enzyme assay was designed that linked toxin production to the lysis of fluorescently labeled liposomes. […] In this way, pyranine fluorescence was correlated to toxin activation allowing for the determination of EC50 values (Fig. 4B, C).
Fig. 4 In vitro pore formation assay for determining inhibitor effectiveness. A A schematic of the assay showing how pore formation is used as an indicator of toxin maturation. […] Pore formation dissipates a pH gradient between the interior of the liposome and the surrounding buffer increasing pyranine fluorescence. […] The data points from two replicates are shown (n = 2). Source data are provided as a Source Data file.
Pyranine encapsulated liposomes were prepared as described elsewhere. […] To a well in a black 96-well plate (200 µL) was added 90 µL high pH buffer (5 mM MES, 5 mM Tricine, 5 mM NaCl, pH 7.4) containing CylA (4 nM final concentration). After adding inhibitor, the mixture was incubated at room temperature for 10 min then freshly prepared (no more than 2 days old) pyranine encapsulated DOPC liposomes were added such that the total DOPC concentration was 80 µM. […] The resulting curves were max-min normalized yielding the fraction of permeabilized liposomes. […] This experiment was performed in duplicate or triplicate for each inhibitor at each concentration.
Supplementary Figure 3. Measuring CylA-cat alyzed cytolysin maturation using a pyranine pore formation assay. Plots on the left side show the normalized pyranine emission intensity monitored […]
was added 30 min later. Each trace w as collected using a differ ent total co ncentration of inhibitor as indicated in the l egend. Traces are from a single representative tri al. On the right side, the fraction of liposomes permeabilized after 30 min was plotted as a function of total inhibitor concentration. The data were fit to a dose-response function using Origin 7 and the fit curve is depicted by the red line. Errors bars represent the standard of deviation bet ween two replicates (n = 2). Source d ata are pro vided as a Source Data file. […]

`CC(=O)NCC(=O)N[C@@H](CC(=O)O)C(=O)N[C@H](C(=O)N[C@@H](CCC(N)=O)C(=O)N[C@@H](C)C(=O)N[C@@H](CCC(=O)O)B(O)O)C1CC1` [Compound 9] (Ac-GD[Gly(cPr)]QA-boroGlu): the “quantities of CylLS” less than the untreated control” value in assay [1] (100 µM, on average) is given as 5.5 fold. The “Concentration CylLS (Figure 8C), replicates 1-4” value in assay [1] (Conc 1 uM of 9) is 1.79 nM and 1.72 nM and 1.6 nM and 1.8 nM; in assay [1] (Conc 10 uM of 9), 2.34 nM and 2.21 nM and 2.19 nM and 2.55 nM; in assay [1] (Conc 100 uM of 9), 0.272 nM and 0.227 nM and 0.262 nM and 0.247 nM. In addition, the “Concentration CylLS (Figure 8C), avg” value in assay [1] (Conc 1 uM of 9) was determined as 1.726 nM; in assay [1] (Conc 10 uM of 9), 2.322 nM; in assay [1] (Conc 100 uM of 9), 0.2518 nM. The “more effective than compound 1 at inhibiting pore formation” value at His6-CylA-27-412 worked out at 2 fold.
